Measurements from patent publication US3943137A, “Acronycine derivatives” (University of Kansas Endowment Association, priority 1973, dated 1976).
Several values for one entry are separate records, joined by “and”; a condition that tells them apart may be missing. Equal entries are not always repeated. Structures can show the parent of a compound that is named as a salt. Where two headings read alike, the source gives them in different places.

Assay: Hydrolysis of acylacronycinium salts in aqueous solution (no complexing agent)
Type: physicochemical
Settings: for half-life: read-out: t1/2 (hydrolysis)
[1] = acetate buffer (25° C.), replicate runs
[2] = phosphate buffer (25° C.), replicate runs
[3] = phosphate buffer, 25° C., pH not given, three runs

In the case of `COc1cc2c(c3c1c(OC(C)=O)c1ccccc1[n+]3C)C=CC(C)(C)O2` [Acetylacronycinium Chloride], the “k (hydrolysis)” value (methanol/water (90/10), pH 0.28) is reported as 0.000413 s⁻¹, the half-life (methanol/water (90/10), pH 0.28, methanol/water (90/10), pH 0.28) is reported as 28 min and the “k (hydrolysis)” value (methanol/water (90/10), pH 1.28) is reported as 0.000417 s⁻¹. For the same compound, the half-life (methanol/water (90/10), pH 1.28, methanol/water (90/10), pH 1.28) was 27.7 min.

For `COc1cc2c(c3c1c(OC(C)=O)c1ccccc1[n+]3C)C=CC(C)(C)O2` [Acetylacronycinium Sulfate], the “k (hydrolysis)” value [1] was 0.000436 s⁻¹ and 0.000423 s⁻¹, the “t1/2 (hydrolysis)” value [1] was 27.3 min and the half-life (acetate buffer, acetate buffer (25° C.), replicate runs) was 26.5 min. For the same compound, the “k (hydrolysis)” value [2] was 0.0006 s⁻¹ and 0.000586 s⁻¹ and 0.000538 s⁻¹, the “t1/2 (hydrolysis)” value [2] was 19.7 min and 21.5 min and the half-life (phosphate buffer, phosphate buffer (25° C.), replicate runs) was 19.3 min.

With `COc1cc2c(c3c1c(OC(=O)C(C)C)c1ccccc1[n+]3C)C=CC(C)(C)O2` [Isobutyrylacronycinium Perchlorate] the “k (hydrolysis)” value (phosphate buffer, pH 6.33, 24° C.) was 0.0003428 s⁻¹ and the half-life (phosphate buffer, pH 6.33, phosphate buffer, pH 6.33, 24° C.) was 33.7 min.

With `COc1cc2c(c3c1c(OC(=O)C(F)(F)F)c1ccccc1[n+]3C)C=CC(C)(C)O2` [Trifluoroacetylacronycinium Perchlorate] the reactivity with chloroform (chloroform) was “little reaction with chloroform (until water was added)”, the hydrolysis on storage (overnight in desiccator while still moist) was “Some hydrolysis occurred overnight” and the “reactivity with water and methanol” value (water and methanol) was “reacted very quickly with water and methanol”.

For `COc1cc2c(c3c1c(OC(=O)C(C)(C)C)c1ccccc1[n+]3C)C=CC(C)(C)O2` [pivalylacronycinium perchlorate, Pivalylacronycinium Perchlorate], the “k (hydrolysis)” value [3] was 0.000717 s⁻¹ and 0.000645 s⁻¹ and 0.000482 s⁻¹, the “t1/2 (hydrolysis)” value [3] was 17.91 min and 23.98 min and the half-life [3] was 16.1 min.
